Ends that are not written are not given here.
How the values were obtained:
[1] = system: antifilaggrin antibodies in human sera; experiment: Line Immuno Assay (LIA): reactivity of streptavidin-complexed synthetic peptides with human sera; assay type: binding; conditions: for LIA signals: 26 human RA sera (Fig. 3), peptides applied at 400 µg/ml, citrulline-containing peptides versus non-modified counterparts; for Reactivity in the LIA system: 75 sera from patients fulfilling the ARA criteria for RA, 13 synthetic peptides tested; for Immunoreaction towards peptide, comparison between peptides: in all serum groups; for Reactivity of sera on synthetic peptides: sera IG35038/ 35041
From the text: Human sera were obtained from the Department of Rheumatology of the University Hospital in Ghent (Belgium). In total, 265 sera were included, of which 75 fulfilled the ARA criteria for RA (Arnett et al., Arthritis Rheum.,31: 315-324, 1987), 155 sera scored positive in the APF fluorescence test (De Keyser et al., in press), 98 reacted with natural filaggrin on Western blot, 80 were APF negative and 16 were derived from healthy controls.
Streptavidin-complexed peptides were applied directly on a nylon membrane with a plastic backing. Blocked strips were incubated overnight with human sera diluted 1/100 in 1 ml PBS, 0.5% caseine, 0.1% Triton X705, 10 mM MgCl2.6H2O. After washing with PBS, 0.05% Tween20, goat anti-human IgG-AP conjugated (Promega) diluted in PBS, 0.1% caseine, 0.2% Triton X705 was added for 1h30. Strips were developed in 100 mM NaCl, 100 mM Tris-HCl, pH 9.8, 50 mM MgCl2.6H2O substrate buffer containing the chromogenic substrate NBT/ BCIP. Reaction was stopped after 30 min by addition of 0.2 N H2SO4.

anti-filaggrin binding = experiment: Inhibition ELISA on plates coated with human natural filaggrin, sera preincubated with competitor; conditions: peptide as competitor at 100 µg/ml; 4 APF positive sera
Experimental: Electro-eluted human natural filaggrin was coated in Maxisorp polystyrene plates at a concentration of 1 or 4 µg/ml in 50 mM carbonate buffer, pH 9.6 overnight at 4°C. Sera were diluted 1/50 in PBS, and preincubated with either the appropriate peptides at 100 µg/ml, with isolated natural filaggrin at 1 or 10 µg/ml (positive control) or with PBS (negative control) for 2 hours. The plates were blocked 1 hour with PBS, 0.1% caseïne at 37°C and subsequently incubated with the sera. During 2 hours at 37°C. Plates were washed 5 times with PBS, 0.05% Tween 20 and incubated with anti-human IgG-HRP in PBS, 0.1 % caseïne, 0.1 mM K3Fe(CN)6. Colour development was performed using tetramethylbenzidine diluted 1/100 into 0.1 M Na2HPO4, 0.1 M citric acid, 0.006% H2O2, pH 4.3. Reaction was stopped by addition of 2N H2SO4 and OD values were measured at 450 nm using a Bio-tek ELISA reader. The percentage of inhibition was caculated as folows: [formula]

[2] = serum group APF neg., number of sera 80
[3] = serum group APF pos., number of sera 155
[4] = serum group Fg blot pos., number of sera 98
[5] = serum group Healthy, number of sera 16
[6] = serum group RA sera, number of sera 75

Row | Sequence | LIA signals [1] | Reactivity in the LIA system [1] | Immunoreaction towards peptide, comparison between peptides [1] | Reactivity of sera on synthetic peptides [1] | Immunoreactivity of human sera with synthetic peptide: number of reactive sera [1, 2] | Immunoreactivity of human sera with synthetic peptide: percentage of reactive sera [1, 2] | Immunoreactivity of human sera with synthetic peptide: number of reactive sera [1, 3] | Immunoreactivity of human sera with synthetic peptide: percentage of reactive sera [1, 3] | Immunoreactivity of human sera with synthetic peptide: number of reactive sera [1, 4] | Immunoreactivity of human sera with synthetic peptide: percentage of reactive sera [1, 4] | Immunoreactivity of human sera with synthetic peptide: number of reactive sera [1, 5] | Immunoreactivity of human sera with synthetic peptide: percentage of reactive sera [1, 5] | Immunoreactivity of human sera with synthetic peptide: number of reactive sera [1, 6] | Immunoreactivity of human sera with synthetic peptide: percentage of reactive sera [1, 6] | number of sera significantly inhibited (anti-filaggrin binding)
1 | DSGHRGYSGSQASDNEGH [IGP1157] (also: Arg may be citrulline in one of each IGP pair, not given here) | positive | Reactivity was noted | very faint | negative | 2/61 | 3.3% | 4/128 | 3.1% | 4/94 | 4.2% | 0/10 | 0% | 3/72 | 4.2% | –
2 | DSGHRGYSGSQASDNEGH [IGP1181] (also: Arg may be citrulline in one of each IGP pair, not given here) [reference compound] | disappeared completely | – | – | – | – | – | – | – | – | – | – | – | – | – | –
3 | GGQGSRHQQAR [IGP1249] | – | Reactivity was noted | – | – | 1/79 | 1.3% | 23/150 | 15.3% | 17/94 | 18.1% | 1 | 6.3% | 9/73 | 12.3% | –
4 | HSASQDGQDTIRGHPGSS [IGP1155] (also: Arg may be citrulline in one of each IGP pair, not given here) | positive | Reactivity was noted | – | negative | 4 | 5.5% | 35 | 22.6% | 35 | 37.2% | 1 | 6.3% | 17 | 22.7% | 2 out of 4
5 | HSASQDGQDTIRGHPGSS [IGP1179] (also: Arg may be citrulline in one of each IGP pair, not given here) [reference compound] | disappeared completely | – | – | – | – | – | – | – | – | – | – | – | – | – | –
6 | HSGIGHGQASSAVRDSGHRGYS [IGP1156] (not fully specified; also: Arg may be citrulline in one of each IGP pair, not given here) | positive | Reactivity was noted | best reactive | negative | 4 | 5.5% | 50 | 32.2% | 46 | 48.9% | 2 | 12.5% | 25 | 33.3% | –
7 | HSGIGHGQASSAVRDSGHRGYS [IGP1180] (also: Arg may be citrulline in one of each IGP pair, not given here) [reference compound] | disappeared completely | – | – | – | – | – | – | – | – | – | – | – | – | – | –
8 | HSTSQEGQDTIHGHRGS [IGP1158] (also: Arg may be citrulline in one of each IGP pair, not given here) | positive | Reactivity was noted | best reactive | negative | 5/79 | 6.3% | 42 | 27.1% | 41 | 43.6% | 1 | 6.3% | 24 | 32% | 1
9 | HSTSQEGQDTIHGHRGS [IGP1182] (also: Arg may be citrulline in one of each IGP pair, not given here) [reference compound] | disappeared completely | – | – | – | – | – | – | – | – | – | – | – | – | – | –
